PubChem BioAssay (NCI)
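Step 1: Grow cells in 96-well plates. Step 2: Expose to compound for 48 hours at 5 concentrations. Step 3: Interpolate endpoints linearly; if unreached, use highest concentration. Here, GI50 denotes the concentration required for 50% inhibition of growth. The concentration for full growth arrest is given as TGI.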

Legend:
Test in all cases: growth of human tumour cells (NCI), 48 h
SF-539 CNS = test system: SF-539 CNS
IGROV1 ovarian = test system: IGROV1 ovarian
HCT-116 colon = test system: HCT-116 colon
SR leukemia = test system: SR leukemia
NCI-H460 lung = test system: NCI-H460 lung
SNB-75 CNS = test system: SNB-75 CNS
SK-MEL-28 melanoma = test system: SK-MEL-28 melanoma
HS 578T breast = test system: HS 578T breast
T-47D breast = test system: T-47D breast
BT-549 breast = test system: BT-549 breast

## O=C1/C(=N\O)c2ccccc2S1(=O)=O
SF-539 CNS
  TGI: > 100 µM
IGROV1 ovarian
  TGI: > 100 µM
HCT-116 colon
  TGI: > 100 µM
SR leukemia
  TGI: > 100 µM
NCI-H460 lung
  TGI: > 100 µM
SNB-75 CNS
  TGI: > 100 µM

## c1ccc([CH2][Sn]([CH2]c2ccccc2)([O]c2cccc3cccnc23)[O]c2cccc3cccnc23)cc1
SF-539 CNS
  GI50: 0.248 µM
  TGI: 0.677 µM
IGROV1 ovarian
  GI50: 0.403 µM
  TGI: 1.23 µM
HCT-116 colon
  GI50: 0.211 µM
  TGI: 1.19 µM
SK-MEL-28 melanoma
  GI50: 0.193 µM
  TGI: 0.963 µM
NCI-H460 lung
  GI50: 0.207 µM
  TGI: 0.446 µM
SNB-75 CNS
  GI50: 0.468 µM
  TGI: 1.81 µM

## O=S(=O)([O-])c1ccc(N=Cc2ccccc2[O-])cc1.O=S(=O)([O-])c1ccc(N=Cc2ccccc2[O-])cc1.[O]=[U+2]=[O]
SF-539 CNS
  GI50: 54.7 µM
  TGI: > 100 µM
IGROV1 ovarian
  GI50: 83.8 µM
  TGI: > 100 µM
HCT-116 colon
  GI50: 20 µM
  TGI: > 100 µM
SK-MEL-28 melanoma
  GI50: > 100 µM
  TGI: > 100 µM
NCI-H460 lung
  GI50: > 100 µM
  TGI: > 100 µM
SNB-75 CNS
  GI50: > 100 µM
  TGI: > 100 µM

## Cc1ccc(S(=O)(=O)c2ccc(NC(=O)SCCC(=O)O)cc2)cc1
SF-539 CNS
  TGI: > 100 µM
IGROV1 ovarian
  TGI: > 100 µM
HCT-116 colon
  TGI: > 100 µM
SK-MEL-28 melanoma
  TGI: > 100 µM
SR leukemia
  TGI: > 100 µM
NCI-H460 lung
  TGI: > 100 µM
SNB-75 CNS
  TGI: > 100 µM

## COc1ccc2c(c1)[n+]([O-])c(-c1ccc([N+](=O)[O-])cc1)c(N)[n+]2[O-]
SF-539 CNS
  TGI: > 100 µM
IGROV1 ovarian
  TGI: > 100 µM
HCT-116 colon
  TGI: > 100 µM
SK-MEL-28 melanoma
  TGI: > 100 µM
SR leukemia
  TGI: > 100 µM
NCI-H460 lung
  TGI: > 100 µM
SNB-75 CNS
  TGI: > 100 µM

## O=C(COc1ccc(/C=C2\COc3ccccc3C2=O)cc1)Nc1nccs1
SF-539 CNS
  GI50: 15 µM
  TGI: 29.4 µM
HS 578T breast
  GI50: 2.74 µM
  TGI: 9.4 µM
HCT-116 colon
  GI50: 3.75 µM
  TGI: 12.8 µM
SK-MEL-28 melanoma
  GI50: 13.2 µM
  TGI: 26.1 µM
SR leukemia
  GI50: 1.31 µM
  TGI: 3.23 µM
NCI-H460 lung
  GI50: 18.6 µM
  TGI: 64.6 µM
SNB-75 CNS
  GI50: 5.04 µM
  TGI: 22 µM
T-47D breast
  GI50: 16.1 µM
  TGI: 38.8 µM

## O=C1c2[nH]cc(CNC3CN4CCC3CC4)c2C(=O)c2c1c(O)c1ccccc1c2O (stereo not given)
BT-549 breast
  GI50: 21.6 µM
  TGI: 47.1 µM
SF-539 CNS
  GI50: 1.94 µM
  TGI: 3.61 µM
HS 578T breast
  GI50: 26.6 µM
  TGI: 77.5 µM
IGROV1 ovarian
  GI50: 1.33 µM
  TGI: 3.84 µM
HCT-116 colon
  GI50: 0.37 µM
  TGI: 2.65 µM
SK-MEL-28 melanoma
  GI50: 13 µM
  TGI: 34.2 µM
SNB-75 CNS
  GI50: 16.2 µM
  TGI: 44.6 µM
T-47D breast
  GI50: 19 µM
  TGI: 39.2 µM

## CN(C)c1ccc(/C=C/C(=O)[O-])cc1.CN(C)c1ccc(/C=C/C(=O)[O-])cc1.[Cu+2]
SF-539 CNS
  TGI: > 100 µM
IGROV1 ovarian
  TGI: > 100 µM
HCT-116 colon
  TGI: > 100 µM
SK-MEL-28 melanoma
  GI50: > 69.8 µM
  TGI: > 100 µM
NCI-H460 lung
  TGI: > 100 µM
SNB-75 CNS
  TGI: > 100 µM

## Cc1ccc(Cl)cc1Nc1nc(C(F)(F)F)ccc1C(=O)N/N=C/c1cccnc1
SF-539 CNS
  GI50: 2.45 µM
  TGI: 10 µM
HS 578T breast
  GI50: 4.05 µM
  TGI: 18.5 µM
IGROV1 ovarian
  GI50: 4.22 µM
  TGI: 15.8 µM
HCT-116 colon
  GI50: 2.34 µM
  TGI: 14.4 µM
SK-MEL-28 melanoma
  GI50: 4.24 µM
  TGI: 15.8 µM
SR leukemia
  GI50: 0.148 µM
NCI-H460 lung
  GI50: 2.76 µM
  TGI: 11.1 µM
SNB-75 CNS
  GI50: 4.93 µM
  TGI: 19.5 µM
T-47D breast
  GI50: 3.16 µM
  TGI: 20.8 µM

## COc1c(C)cc(O)cc1C=O
SF-539 CNS
  TGI: > 100 µM
IGROV1 ovarian
  TGI: > 100 µM
SK-MEL-28 melanoma
  TGI: > 100 µM
NCI-H460 lung
  TGI: > 100 µM
SNB-75 CNS
  TGI: > 100 µM

## CCOC(=O)c1ccc2c(c1)Cc1cc([N+](=O)[O-])ccc1-2
BT-549 breast
  TGI: 94.2 µM
SF-539 CNS
  TGI: > 100 µM
HS 578T breast
  TGI: > 100 µM
IGROV1 ovarian
  TGI: > 100 µM
HCT-116 colon
  TGI: > 100 µM
SK-MEL-28 melanoma
  TGI: > 100 µM
NCI-H460 lung
  TGI: > 100 µM
T-47D breast
  TGI: > 100 µM

## O=C1/C(=C\c2ccc(F)cc2)CN(C(=O)c2ccccc2)C/C1=C\c1ccc(F)cc1
BT-549 breast
  GI50: 1.81 µM
  TGI: 3.43 µM
SF-539 CNS
  GI50: 2.56 µM
  TGI: 7.58 µM
IGROV1 ovarian
  GI50: 3.33 µM
  TGI: 10.7 µM
HCT-116 colon
  GI50: 0.428 µM
  TGI: 1.71 µM
SK-MEL-28 melanoma
  GI50: 2.24 µM
  TGI: 5.88 µM
SR leukemia
  GI50: 0.484 µM
  TGI: 26.8 µM
SNB-75 CNS
  GI50: 3.57 µM
  TGI: 42.6 µM
T-47D breast
  GI50: 6.22 µM
  TGI: 71.4 µM

## O=[N+]([O-])c1ccc(C2CC(c3ccccc3Cl)=Nc3ccccc3S2)cc1 (stereo not given)
SF-539 CNS
  TGI: 17.7 µM
IGROV1 ovarian
  TGI: 29.6 µM
HCT-116 colon
  TGI: 4.92 µM
SK-MEL-28 melanoma
  TGI: 22.7 µM
SR leukemia
  TGI: 5.27 µM
NCI-H460 lung
  TGI: 45.1 µM
SNB-75 CNS
  TGI: 44.1 µM

## O=c1cc(-c2ccccc2)oc2ccc(OC/C(=N/O)c3ccccc3)cc12
BT-549 breast
  GI50: 1.46 µM
  TGI: 9.01 µM
SF-539 CNS
  GI50: 1.39 µM
  TGI: 2.93 µM
IGROV1 ovarian
  GI50: 7.62 µM
  TGI: > 50 µM
HCT-116 colon
  GI50: 3.11 µM
  TGI: > 50 µM
SK-MEL-28 melanoma
  GI50: 8.38 µM
  TGI: > 50 µM
SR leukemia
  GI50: 1.73 µM
  TGI: > 50 µM
NCI-H460 lung
  GI50: 1.97 µM
  TGI: 16.9 µM
SNB-75 CNS
  GI50: 2.76 µM
  TGI: > 50 µM

## COC(=O)C1=Cc2cc(OC)c(OC)c(OC)c2[C@H](c2cc(OC)c(OC)c(OC)c2)C1C(=O)OC (stereo not given in full)
SF-539 CNS
  TGI: > 100 µM
IGROV1 ovarian
  TGI: > 100 µM
HCT-116 colon
  TGI: > 100 µM
SK-MEL-28 melanoma
  TGI: > 100 µM
NCI-H460 lung
  TGI: > 100 µM
SNB-75 CNS
  TGI: > 100 µM

## N.N.NCCCCCN.O=C([O-])CCl.O=C([O-])CCl.O=C([O-])CCl.O=C([O-])CCl.[Pt+4].[Pt+4]
SF-539 CNS
  GI50: 3.08 µM
  TGI: 19.8 µM
IGROV1 ovarian
  GI50: 18 µM
  TGI: 67.3 µM
HCT-116 colon
  GI50: 10.8 µM
  TGI: > 100 µM
SK-MEL-28 melanoma
  GI50: 23.2 µM
  TGI: 73.8 µM
SR leukemia
  GI50: 1.73 µM
  TGI: 16.8 µM
NCI-H460 lung
  GI50: 0.316 µM
  TGI: 18.6 µM
SNB-75 CNS
  GI50: 0.996 µM
  TGI: 11.8 µM

## CCOC(=O)C1SC(=Nc2cccc(Cl)c2C)N=C1C (stereo not given)
SF-539 CNS
  TGI: 74 µM
IGROV1 ovarian
  TGI: > 100 µM
HCT-116 colon
  TGI: 58.1 µM
SK-MEL-28 melanoma
  TGI: > 100 µM
SR leukemia
  TGI: 61.2 µM
NCI-H460 lung
  TGI: > 100 µM
SNB-75 CNS
  TGI: 61.4 µM

## COc1ccc(/C=C(/C(=O)N2CCN(c3ccccc3)CC2)c2cc(OC)c(OC)c(OC)c2)cc1N
BT-549 breast
  GI50: 0.53 µM
  TGI: > 100 µM
SF-539 CNS
  GI50: 0.223 µM
  TGI: 0.797 µM
HS 578T breast
  GI50: 0.357 µM
  TGI: > 100 µM
IGROV1 ovarian
  GI50: 0.697 µM
  TGI: > 100 µM
HCT-116 colon
  GI50: 0.356 µM
  TGI: > 100 µM
SK-MEL-28 melanoma
  GI50: 1.47 µM
  TGI: > 100 µM
SR leukemia
  GI50: 0.409 µM
  TGI: > 100 µM
NCI-H460 lung
  GI50: 0.364 µM
  TGI: > 100 µM
SNB-75 CNS
  GI50: 0.22 µM
  TGI: > 100 µM

## CC[C@H]1CN2CCc3cc(OC)c(OC)cc3C2C[C@@H]1CC1NCCc2cc(OC)c(OC)cc21 (stereo not given in full)
BT-549 breast
  TGI: 0.375 µM
HS 578T breast
  TGI: 1.75 µM
IGROV1 ovarian
  TGI: 0.407 µM
HCT-116 colon
  TGI: 0.0491 µM
SK-MEL-28 melanoma
  TGI: 0.119 µM
NCI-H460 lung
  TGI: 0.112 µM
T-47D breast
  TGI: 0.0773 µM

## O=C1CC(c2c(-c3ccccc3)[nH]c3ccccc23)C(=O)N1 (stereo not given)
SF-539 CNS
  TGI: > 100 µM
IGROV1 ovarian
  TGI: > 100 µM
HCT-116 colon
  TGI: > 100 µM
SK-MEL-28 melanoma
  TGI: > 100 µM
NCI-H460 lung
  TGI: > 100 µM
SNB-75 CNS
  TGI: > 100 µM
